Article PMC8453943 (Clinical Pharmacology in Drug Development, 2021)
Where two headings read alike, the source gives them in different places.

Experiments:
[1] = Part 1 single-ascending-dose study, plasma PK; format: in vivo, human; settings: for Tmax: human, plasma, po; for CL/F, Geometric mean (% CV) / CL/F, Mean (SD): fasted
[2] = Part 1 single-ascending-dose study, urine PK; format: in vivo, human; settings: within 48 hours, across all dose groups
[3] = Part 2 effect of a low-fat meal on PK; format: in vivo, human; settings: for AUC(0-inf) / Cmax / Tmax: human, plasma, oral; for Tmax: Median (range)
[4] = Part 3 relative bioavailability of capsule B vs capsule A; format: in vivo, human
[5] = Safety and tolerability assessments; format: in vivo, human
[6] = Dose proportionality, power model on pooled exposure data; format: in vivo, human; settings: 40- to 160-mg dose range, pooled parts 1-3
[7] = cited from earlier work
[8] = tested on: CYP3A4/5; settings: recombinant human CYPs, in vitro; cited from earlier work
[9] = repeat dosing, animals; dermal and gastrointestinal toxicities; cited from earlier work
[10] = in vitro assays; cited from earlier work
[11] = cited from earlier work; remark: listed apart in the source
[12] = preclinical studies; cited from earlier work
[13] = part 1, 120 mg single oral dose
[14] = part 1, 160 mg single oral dose
[15] = 120 mg, Geometric mean (% CV), part 2, 120 mg, fasted
[16] = 120 mg, Geometric mean (% CV), part 2, 120 mg, low-fat meal
[17] = 120 mg, Mean (SD), part 2, 120 mg, fasted
[18] = 120 mg, Mean (SD), part 2, 120 mg, low-fat meal
[19] = 160 mg, Geometric mean (% CV), part 2, 160 mg, fasted
[20] = 160 mg, Geometric mean (% CV), part 2, 160 mg, low-fat meal
[21] = 160 mg, Mean (SD), part 2, 160 mg, fasted
[22] = 160 mg, Mean (SD), part 2, 160 mg, low-fat meal
[23] = part 2, 120 mg, low-fat meal (test) vs fasted (reference)
[24] = part 3, 160 mg, fasted, capsule B (test) vs capsule A (reference)
[25] = AEs in ≥10% of volunteers in any part
[26] = part 1, overall (N = 40, includes pooled placebo)
[27] = part 2, 120 mg, low-fat meal (n = 6)
[28] = part 2, 160 mg, fasted (n = 10)
[29] = part 2, 160 mg, low-fat meal (n = 10)
[30] = part 3, mobocertinib 160 mg, overall (N = 13)

## C=CC(=O)Nc1cc(Nc2ncc(C(=O)OC(C)C)c(-c3cn(C)c4ccccc34)n2)c(OC)cc1N(C)CCN(C)C [Mobocertinib]
[1]
  Tmax: 4 to 6 h
[1]; 80 mg
  Tmax: 4 h
[1]; 120 mg
  Tmax: 6 h
[1]; 160 mg
  Tmax: 6 h
[1]; part 1, 20 mg mobocertinib cohort
  Time for which analyte was quantifiable in plasma: up to 72 hours
[1]; part 1, 20 mg single oral dose
  CL/F, Geometric mean (% CV): 314 (11.9) L/h
  CL/F, Mean (SD): 316 (37.5) L/h
[1]; part 1, 40 mg mobocertinib cohort
  Time for which analyte was quantifiable in plasma: ≤ 96 h
[1]; part 1, 40 mg single oral dose
  CL/F, Geometric mean (% CV): 249 (49.5) L/h
  CL/F, Mean (SD): 283 (140.1) L/h
[1]; part 1, 80 mg mobocertinib cohort
  Time for which analyte was quantifiable in plasma: ≤ 96 h
[1]; part 1, 80 mg single oral dose
  CL/F, Geometric mean (% CV): 312 (72.0) L/h
  CL/F, Mean (SD): 378 (272.2) L/h
[1]; part 1, 120 mg mobocertinib cohort
  Time for which analyte was quantifiable in plasma: ≤ 96 h
[1]; [13]
  CL/F, Geometric mean (% CV): 263 (56.9) L/h
  CL/F, Mean (SD): 292 (166.2) L/h
[1]; part 1, 160 mg mobocertinib cohort
  Time for which analyte was quantifiable in plasma: ≤ 168 h
[1]; [14]
  CL/F, Geometric mean (% CV): 157 (33.2) L/h
  CL/F, Mean (SD): 168 (55.7) L/h
[2]
  Administered mobocertinib dose excreted unchanged in urine: < 1.2%
[3]; [15]
  AUC(0-inf): 526 ng·h/mL
  Cmax: 31.2 ng/mL
[3]; [16]
  AUC(0-inf): 534 ng·h/mL
  Cmax: 27.5 ng/mL
[3]; [17]
  AUC(0-inf): 587 ng·h/mL
  Cmax: 35.5 ng/mL
[3]; [18]
  AUC(0-inf): 578 ng·h/mL
  Cmax: 29.5 ng/mL
[3]; 120 mg, part 2, 120 mg, fasted
  Tmax: 4 h
[3]; 120 mg, part 2, 120 mg, low-fat meal
  Tmax: 6 h
[3]; [19]
  AUC(0-inf): 743 ng·h/mL
  Cmax: 41 ng/mL
[3]; [20]
  AUC(0-inf): 706 ng·h/mL
  Cmax: 39.5 ng/mL
[3]; [21]
  AUC(0-inf): 862 ng·h/mL
  Cmax: 45.8 ng/mL
[3]; [22]
  AUC(0-inf): 768 ng·h/mL
  Cmax: 43 ng/mL
[3]; 160 mg, part 2, 160 mg, fasted
  Tmax: 6 h
[3]; 160 mg, part 2, 160 mg, low-fat meal
  Tmax: 6 h
[3]; mobocertinib and its active metabolites
  Effect of a low-fat meal on PK: did not affect the PK
[3]; [23]
  AUC∞, Geometric LS Mean Ratio (90%CI): 1.02 (0.90‐1.15)
  Cmax, Geometric LS Mean Ratio (90%CI): 0.88 (0.71‐1.09)
[3]; part 2, 160 mg, low-fat meal (test) vs fasted (reference)
  Cmax, Geometric LS Mean Ratio (90%CI): 0.96
[3]; part 2, 120 and 160 mg, low-fat meal and fasted
  Time for which mean plasma concentrations were quantifiable: up to 168 hours
[4]; human, plasma, oral, 160 mg
  Tmax: 5 to 6 h
[4]; [24]
  AUC∞, LS Geometric Mean Ratio (90%CI): 0.96
  Cmax, LS Geometric Mean Ratio (90%CI): 0.93
[5]; [25]
  Diarrhea: 10.0%
  Flatulence: 12.5%
  Soft feces: 12.5%
[5]; all parts
  Serious AEs: No serious AEs were reported
[5]; part 1 (includes pooled placebo)
  Volunteers who experienced AEs: 48%
[5]; part 1, 20 mg (n = 6)
  AE leading to discontinuation: 0 n (%)
  Any AE: 2 (33) n (%)
  Grade 1 AE: 2 (33) n (%)
  Grade 2 AE: 0 n (%)
  Grade ≥3 AE: 0 n (%)
  Treatment-related AE: 1 (17) n (%)
[5]; part 1, 40 mg (n = 6)
  AE leading to discontinuation: 0 n (%)
  Any AE: 3 (50) n (%)
  Grade 1 AE: 2 (33) n (%)
  Grade 2 AE: 1 (17) n (%)
  Grade ≥3 AE: 0 n (%)
  Treatment-related AE: 0 n (%)
[5]; part 1, 80 mg (n = 6)
  AE leading to discontinuation: 0 n (%)
  Any AE: 4 (67) n (%)
  Grade 1 AE: 3 (50) n (%)
  Grade 2 AE: 1 (17) n (%)
  Grade ≥3 AE: 0 n (%)
  Treatment-related AE: 3 (50) n (%)
[5]; part 1, 120 mg (n = 6)
  AE leading to discontinuation: 0 n (%)
  Any AE: 3 (50) n (%)
  Grade 1 AE: 1 (17) n (%)
  Grade 2 AE: 2 (33) n (%)
  Grade ≥3 AE: 0 n (%)
  Treatment-related AE: 0 n (%)
[5]; part 1, 160 mg (n = 6)
  AE leading to discontinuation: 0 n (%)
  Any AE: 5 (83) n (%)
  Grade 1 AE: 4 (67) n (%)
  Grade 2 AE: 1 (17) n (%)
  Grade ≥3 AE: 0 n (%)
  Treatment-related AE: 3 (50) n (%)
[5]; part 1, 20-mg dose group
  Decrease in serum creatine kinase: –26.8 U/L
[5]; part 1, 160-mg group
  Decrease in serum creatine kinase: –69.0 U/L
[5]; [26]
  AE leading to discontinuation: 0 n (%)
  Any AE: 19 (48) n (%)
  Grade 1 AE: 14 (35) n (%)
  Grade 2 AE: 5 (13) n (%)
  Grade ≥3 AE: 0 n (%)
  Treatment-related AE: 9 (23) n (%)
[5]; part 2
  Volunteers who experienced AEs: 75%
[5]; part 2, 120 mg, fasted (n = 6)
  AE leading to discontinuation: 0 n (%)
  Any AE: 3 (50) n (%)
  Grade 1 AE: 2 (33) n (%)
  Grade 2 AE: 1 (17) n (%)
  Grade ≥3 AE: 0 n (%)
  Treatment-related AE: 3 (50) n (%)
  Treatment-related AE, Grade ≥3: 0 n (%)
[5]; [27]
  AE leading to discontinuation: 0 n (%)
  Any AE: 3 (50) n (%)
  Grade 1 AE: 2 (33) n (%)
  Grade 2 AE: 0 n (%)
  Grade ≥3 AE: 1 (17) n (%)
  Treatment-related AE: 2 (33) n (%)
  Treatment-related AE, Grade ≥3: 0 n (%)
[5]; [28]
  AE leading to discontinuation: 0 n (%)
  Any AE: 5 (50) n (%)
  Grade 1 AE: 5 (50) n (%)
  Grade 2 AE: 0 n (%)
  Grade ≥3 AE: 0 n (%)
  Treatment-related AE: 5 (50) n (%)
  Treatment-related AE, Grade ≥3: 0 n (%)
[5]; [29]
  AE leading to discontinuation: 0 n (%)
  Any AE: 7 (70) n (%)
  Grade 1 AE: 7 (70) n (%)
  Grade 2 AE: 0 n (%)
  Grade ≥3 AE: 0 n (%)
  Treatment-related AE: 4 (40) n (%)
  Treatment-related AE, Grade ≥3: 0 n (%)
[5]; part 2, overall (N = 16)
  AE leading to discontinuation: 0 n (%)
  Any AE: 12 (75) n (%)
  Grade 1 AE: 11 (69) n (%)
  Grade 2 AE: 0 n (%)
  Grade ≥3 AE: 1 (6) n (%)
  Treatment-related AE: 8 (50) n (%)
  Treatment-related AE, Grade ≥3: 0 n (%)
[5]; part 3
  Volunteers who experienced AEs: 46%
[5]; [30]
  AE leading to discontinuation: 1 (8) n (%)
  Grade 1 AE: 5 (39) n (%)
  Grade 2 AE: 1 (8) n (%)
  Grade ≥3 AE: 0 n (%)
  Treatment-related AE: 2 (15) n (%)
  Volunteers with AEs: 6 (46) n (%)
[5]; single oral dose
  Single doses tolerated in healthy adult volunteers: up to 160 mg
[6]
  Slope (95% CI) of regression of log mobocertinib AUC∞ vs log dose: 1.20 (0.93‐1.46)
[7]; 160 mg once daily, repeat dosing, ref NCT02716116
  Accumulation ratio of AUC0-24, cycle 2 day 1 over cycle 1 day 1: 1.03
[7]; once daily, patients
  Maximum tolerated dose: 160 mg
[8]
  Percent contribution of CYP3A4/5 to metabolism: > 90%
[9]
  Maximum tolerated dose: 10 mg/kg
[10]
  Genotoxicity: no evidence of genotoxicity
[11]
  Permeability: high permeability
  Solubility: high solubility
[12]
  Route of elimination: eliminated almost completely through feces
